Laboratory results: patent US20100234455A1, “Histone Deacetylase Inhibitors” (Errant Gene Therapeutics, LLC, priority 2004, published 2010)

What was measured:
[1] = test system: LNCaP cells (human prostate cancer cells); test: p53 acetylation, p21 and Bax effects in LNCaP cells; format: cell-based
PC-3 cells = test: Bax and p21 activation in PC-3 cells (p53-/-, no HDAC2); format: cell-based; details: do not express HDAC2
rat fibroblasts = details: cited from earlier work
tumors = details: cited from earlier work
HDAC = details: cited from earlier work

CC(/C=C/C(=O)NO)=C\[C@@H](C)C(=O)c1ccc(N(C)C)cc1 [TSA, trichostatin A]
Bax mitochondrial translocation and cleavage ([1]; LNCaP cells): nor did it affect Bax translocation and cleavage
cell cycle arrest ([1]; LNCaP cells): induced p21 and cell cycle arrest
p21 levels ([1]; LNCaP cells): induced p21
steady state level of cytosolic Bax ([1]; LNCaP cells): did not alter Bax levels
p53 dependent activation of Bax (PC-3 cells): absent
p53 independent p21 activation (PC-3 cells): p53 independent p21 activation was observed
cell cycle arrest of rat fibroblasts (rat fibroblasts): causes arrest of rat fibroblasts at the G1 and G2 phases of the cell cycle
formation of tumors in mice (tumors): prevent the formation of tumors in mice
HDAC activity (HDAC): HDAC activity is inhibited

O=C(C=CC=CC=Cc1ccccc1)NO [7-phenyl-2,4,6-heptatrienoylhydroxamic acid]
level of histone acetylation [1]: increasing the level of histone acetylation
Bax mitochondrial translocation and cleavage ([1]; LNCaP cells): induced Bax mitochondrial translocation and cleavage
cell cycle arrest ([1]; LNCaP cells): cell cycle arrest, primarily at G2/M interface
degradation of HDAC2 ([1]; LNCaP cells): induction of selective degradation of HDAC2
levels of total p53 ([1]; LNCaP cells): increases the levels of total p53
p21 levels ([1]; LNCaP cells): p53-dependent increase in p21 levels
steady state level of cytosolic Bax ([1]; LNCaP cells): increased the steady state level of cytosolic Bax
acetylation of p53 at Lys320 ([1]; Lys320): not Lys320
acetylation of p53 at Lys373 and Lys382 ([1]; Lys373 and Lys382): stabilizes the acetylation of p53 at amino acids Lys373 and Lys382
p53 dependent activation of Bax (PC-3 cells): absent
p53 independent p21 activation (PC-3 cells): p53 independent p21 activation was observed

O=C(CCCCCCC(=O)Nc1ccccc1)NO [SAHA, suberoylanilide hydroxamic acid]
formation of tumors in mice (tumors): prevent the formation of tumors in mice
HDAC activity (HDAC): HDAC activity is inhibited
